Converted amounts (≈) assume the structure as drawn.
Test system: Mycobacterium tuberculosis
Assay: Antituberculosis activity against multi-drug resistant Mycobacterium tuberculosis
Assay type: functional

Structure (SMILES) | MIC [µM]
CC(C)Cc1cc(O)c(-c2ccccc2)c(=O)[nH]1 | 2.5 (≈ 0.608 µg/mL)
CC1(C)CCC(Cc2cc(O)c(-c3ccccc3)c(=O)[nH]2)CC1 | 0.04 (≈ 0.0125 µg/mL)
